Patent US10934296B2, “4-imidazopyridazin-1-yl-benzamides as Btk inhibitors” (Merck Sharp & Dohme B.V., priority 2011, dated 2021)

Target: Btk enzyme (His-Btk) (Homo sapiens (Human), UniProt Q06187)
Assay: Btk enzyme activity, IMAP fluorescence polarization assay
Conditions: 60 min pre-incubation, 5 μM ATP, bin bounds in nM

Sequence of Btk enzyme (His-Btk) (Q06187 whole entry): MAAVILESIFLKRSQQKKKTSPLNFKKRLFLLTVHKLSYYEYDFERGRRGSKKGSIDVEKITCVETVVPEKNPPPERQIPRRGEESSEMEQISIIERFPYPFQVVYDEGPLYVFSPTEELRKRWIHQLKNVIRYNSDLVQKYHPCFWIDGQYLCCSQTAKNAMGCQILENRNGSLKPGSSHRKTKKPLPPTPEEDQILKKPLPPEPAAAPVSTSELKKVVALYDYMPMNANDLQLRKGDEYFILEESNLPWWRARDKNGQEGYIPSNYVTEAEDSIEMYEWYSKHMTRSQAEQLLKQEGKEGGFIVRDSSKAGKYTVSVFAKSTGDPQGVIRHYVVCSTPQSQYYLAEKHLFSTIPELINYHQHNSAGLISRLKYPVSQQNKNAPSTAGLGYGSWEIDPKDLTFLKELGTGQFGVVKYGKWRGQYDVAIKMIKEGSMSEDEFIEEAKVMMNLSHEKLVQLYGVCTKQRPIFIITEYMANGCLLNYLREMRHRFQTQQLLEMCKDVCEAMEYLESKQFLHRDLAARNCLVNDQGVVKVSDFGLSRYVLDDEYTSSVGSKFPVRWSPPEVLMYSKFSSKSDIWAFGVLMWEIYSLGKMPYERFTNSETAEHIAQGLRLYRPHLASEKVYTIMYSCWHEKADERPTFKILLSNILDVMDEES

SMILES | EC50 Btk activity values
CC#CC(=O)N1CCCC[C@H]1c1nc(-c2ccc(C(=O)Nc3nccc(C)n3)cc2)c2c(N)nccn12 [Example 89, (S)-4-(8-amino-3-(1-but-2-ynoylpiperidin-2-yl)imidazo[1,5-a]pyrazin-1-yl)-N-(4-methylpyrimidin-2-yl)benzamide] | <100 nM
Cc1ccnc(NC(=O)c2ccc(-c3nc([C@@H]4CCCN4C(=O)/C=C/CN(C)C)n4ccnc(N)c34)cc2)c1 [Example 59, (S,E)-4-(8-amino-3-(1-(4-(dimethylamino)but-2-enoyl)pyrrolidin-2-yl)imidazo[1,5-a]pyrazin-1-yl)-N-(4-methylpyridin-2-yl)benzamide] | <100 nM
CCCc1ccnc(NC(=O)c2ccc(-c3nc([C@@H]4CCCCN4C(=O)/C=C/COC)n4ccnc(N)c34)cc2F)c1 [Example 114, (S,E)-4-(8-amino-3-(1-(4-methoxybut-2-enoyl)piperidin-2-yl)imidazo[1,5-a]pyrazin-1-yl)-2-fluoro-N-(4-propylpyridin-2-yl)benzamide] | <100 nM
Nc1nccn2c([C@@H]3CCCN3C(=O)c3ccnc(Cl)n3)nc(-c3ccc(C(=O)Nc4ccccn4)c(F)c3)c12 [Example 84, (S)-4-(8-amino-3-(1-(2-chloropyrimidine-4-carbonyl)pyrrolidin-2-yl)imidazo[1,5-a]pyrazin-1-yl)-2-fluoro-N-(pyridin-2-yl)benzamide] | <100 nM
COC/C=C/C(=O)N1CCCC[C@H]1c1nc(-c2ccc(C(=O)Nc3cc(F)ccn3)cc2)c2c(N)nccn12 [Example 81, (S,E)-4-(8-amino-3-(1-(4-methoxybut-2-enoyl)piperidin-2-yl)imidazo[1,5-a]pyrazin-1-yl)-N-(4-fluoropyridin-2-yl)benzamide] | <100 nM
CC#CC(=O)N1CCC[C@H]1c1nc(-c2ccc(C(=O)Nc3ccccn3)c(F)c2)c2c(N)nccn12 [Example 50, (S)-4-(8-amino-3-(1-but-2-ynoylpyrrolidin-2-yl)imidazo[1,5-a]pyrazin-1-yl)-2-fluoro-N-(pyridin-2-yl)benzamide] | <100 nM
CC#CC(=O)NCc1nc(-c2ccc(C(=O)Nc3ccccn3)cc2)c2c(N)nccn12 [Example 112, 4-(8-amino-3-(but-2-ynamidomethyl)imidazo[1,5-a]pyrazin-1-yl)-N-(pyridin-2-yl)benzamide] | <100 nM

Same assay, conditions: 60 min pre-incubation, 5 μM ATP, bin bounds in μM

SMILES | EC50 Btk activity values
COC/C=C/C(=O)N1CCCC[C@H]1c1nc(-c2ccc(C(=O)Nc3ccon3)cc2)c2c(N)nccn12 [Example 54, (S,E)-4-(8-amino-3-(1-(4-methoxybut-2-enoyl)piperidin-2-yl)imidazo[1,5-a]pyrazin-1-yl)-N-(isoxazol-3-yl)benzamide] | <1000 nM
Nc1nccn2c([C@@H]3CCCCN3C(=O)c3ccnc(Cl)n3)nc(-c3ccc(C(=O)Nc4cccnn4)cc3)c12 [Example 74, (S)-4-(8-amino-3-(1-(2-chloropyrimidine-4-carbonyl)piperidin-2-yl)imidazo[1,5-a]pyrazin-1-yl)-N-(pyridazin-3-yl)benzamide] | <1000 nM
CCCc1ccnc(NC(=O)c2ccc(-c3nc([C@@H]4CCCN4C(=O)/C=C/COC)n4ccnc(N)c34)c(C)c2)c1 [Example 87, 4-(8-amino-3-((S)-1-((E)-4-methoxybut-2-enoyl)pyrrolidin-2-yl)imidazo[1,5-a]pyrazin-1-yl)-3-methyl-N-(4-propylpyridin-2-yl)benzamide] | <1000 nM
Nc1nccn2c([C@@H]3CCCCN3C(=O)c3ccnc(Cl)n3)nc(-c3ccc(C(=O)Nc4ncccn4)cc3)c12 [Example 90, (S)-4-(8-amino-3-(1-(2-chloropyrimidine-4-carbonyl)piperidin-2-yl)imidazo[1,5-a]pyrazin-1-yl)-N-(pyrimidin-2-yl)benzamide] | <1000 nM
